From patent US20180071354A1, “SELECTIVE BREEDING METHOD OF ANTITUMOR/ANTICANCER CAMELLIA SINENSIS STRAIN, AND TEA PRODUCT OF SUCH STRAIN” (FUJIAN AGRICULTURE AND FORESTRY UNIVERSITY, priority 2015, published 2018)
Converted amounts (≈) assume the structure as drawn. Where two headings read alike, the source gives them in different places. Blank lines part the entries; values can stand above or below the compound they belong to.

Experiments:
Type in all cases: cell-based
[1] = tested on: human colon cancer cell line HCT-116; experiment: In vitro antitumor/anticancer testing (CCK-8), HCT-116; conditions: 48 h
Protocol: (§1) Each of Tea Product 1 and Conventional Tea Product obtained in section A of this example was used to prepare test tea samples according to the method described below. A proper amount of the respective tea product was added into sterile water to prepare a stock solution with a concentration of 100 mg/mL, followed by using a membrane filter with a pore size of 0.22 μm to conduct vacuum filtration and sterilization. The resulting stock solution was diluted with a respective complete medium shown in Table 3 below to form test tea samples with different concentrations. In other words, the thus obtained test tea samples to be used for treating a respective cancer/tumor cell line shown in Table 3 were prepared using the same complete medium as that for the respective cancer/tumor cell line. […] Specifically, each of the aforesaid commercially available agents was subjected to the method described below to prepare comparative test samples. A proper amount of a respective commercially available agent was dissolved in phosphate-buffered saline (PBS) to prepare a stock solution with a concentration of 5 mg/mL, followed by using a membrane filter with a pore size of 0.22 μm to conduct vacuum filtration and sterilization. The resulting stock solution was diluted with a respective complete medium shown in Table 3 below to form comparative test samples with different concentrations. To be specific, the comparative test samples prepared from the respective commercially available agent have the concentrations shown in Table 2 below. The thus obtained comparative test samples to be used for treating a respective cancer/tumor cell line shown in Table 3 were prepared using the same complete medium as that for the respective cancer/tumor cell line. […] The cultivation of each cancer/tumor cell line is described as follows. […] Afterwards, a cell suspension having a cell density of 1.0×10^4 cells/mL was prepared. […] As experimental groups, the tumor/cancer cells of each cell line were treated with the test tea samples prepared from one or more of the tea products and the comparative test samples prepared from one or more of the commercially available agents as obtained in section B of this example (for more detailed information about the tea product(s) and the commercially available product (s) used to treat each cell line, please see Table 4 below). To be specific, 6 to 10 test tea samples prepared from the same tea product and having different concentrations, as well as 6 to 10 comparative test samples prepared from the same commercially available agent and having different concentrations, were utilized to treat the tumor/cancer cells of each cell line. For each experimental group, 6 repetitions of tumor/cancer treatment were performed. For the control group, 100 μL of PBS was added to a well containing the medium and the cancer/tumor cells of the respective cell line. For the blank group, 100 μL of PBS was added to a well containing a complete medium the same as that used for cultivation of the cancer/tumor cells of the respective cell line. After the treatment described above, cultivation was conducted in an incubator (37° C., 100% relative humidity, 5% CO2) for 48 hours. Subsequently, the liquid containing the medium and the sample in the well was removed, and a respective complete medium (shown in Table 3 above) containing 10% CCK-8 (Cell Counting Kit-8)(Dojindo Molecular Technologies, Inc., Cat. No. CK04-13) was added. Cultivation was performed in an incubator (37° C.) for 2 to 4 hours, followed by gently shaking.

[2] = tested on: human squamous cell carcinoma cell line A431; experiment: In vitro antitumor/anticancer testing (CCK-8), A431; conditions: 48 h; for IC50: A431
Protocol: as §1

[3] = tested on: human gastric cancer cell line SMMC-7721; experiment: In vitro antitumor/anticancer testing (CCK-8), SMMC-7721; conditions: 48 h
Protocol: as §1

[4] = tested on: human gastric cancer cell line BGC-823; experiment: In vitro antitumor/anticancer testing (CCK-8), BGC-823; conditions: 48 h
Protocol: as §1

IC50 ([1]; HCT-116): IC50 (μg/mL) = 55.72 | IC50 [2]: IC50 (μg/mL) = 29.51 | IC50 ([4]; BGC-823): IC50 (μg/mL) = 62.94
SMILES: O=C(O[C@@H]1Cc2c(O)cc(O)cc2O[C@@H]1c1cc(O)c(O)c(O)c1)c1cc(O)c(O)c(O)c1 [EGCG monomer, epigallocatechin gallate]
Percent growth inhibition ([1]; 2.5 μg/mL): 10.74% | Percent growth inhibition ([1]; 5 μg/mL): −7.91% | Percent growth inhibition ([1]; 10 μg/mL): −4.12% | Percent growth inhibition ([1]; 20 μg/mL): −1.58% | Percent growth inhibition ([1]; 40 μg/mL): 34.52% | Percent growth inhibition ([1]; 80 μg/mL): 66.98% | Percent growth inhibition ([2]; 0.3125 μg/mL): 7.79% | Percent growth inhibition ([2]; 0.625 μg/mL): 13.31% | Percent growth inhibition ([2]; 1.25 μg/mL): 10.00% | Percent growth inhibition ([2]; 2.5 μg/mL): 12.70% | Percent growth inhibition ([2]; 5 μg/mL): 19.18% | Percent growth inhibition ([2]; 10 μg/mL): 24.03% | Percent growth inhibition ([2]; 20 μg/mL): 34.07% | Percent growth inhibition ([2]; 40 μg/mL): 55.14% | Percent growth inhibition ([2]; 80 μg/mL): 30.13% | Percent growth inhibition ([3]; 2.5 μg/mL): 4.93% | Percent growth inhibition ([3]; 5 μg/mL): 3.31% | Percent growth inhibition ([3]; 10 μg/mL): 3.45% | Percent growth inhibition ([3]; 20 μg/mL): 1.33% | Percent growth inhibition ([3]; 40 μg/mL): 6.33% | Percent growth inhibition ([3]; 80 μg/mL): 40.85% | Percent growth inhibition ([3]; 160 μg/mL): 92.58% | Percent growth inhibition ([3]; 320 μg/mL): 98.50% | Percent growth inhibition ([3]; 640 μg/mL): 97.44% | Percent growth inhibition ([4]; 2.5 μg/mL): −0.82% | Percent growth inhibition ([4]; 5 μg/mL): −1.06% | Percent growth inhibition ([4]; 10 μg/mL): −0.64% | Percent growth inhibition ([4]; 20 μg/mL): 6.47% | Percent growth inhibition ([4]; 40 μg/mL): 28.02% | Percent growth inhibition ([4]; 80 μg/mL): 60.53% | Percent growth inhibition ([4]; 160 μg/mL): 97.87% | Percent growth inhibition ([4]; 320 μg/mL): 98.16% | Percent growth inhibition ([4]; 640 μg/mL): 97.03%

IC50 ([1]; Homo sapiens, HCT-116, read-out: IC50): 0.0493 µg/mL (≈ 0.379 µM) | IC50 ([2]; Homo sapiens, A-431, read-out: IC50): 0.272 µg/mL (≈ 2.09 µM) | IC50 ([3]; Homo sapiens, SMMC-7721): 0.383 µg/mL (≈ 2.94 µM) | IC50 ([4]; Homo sapiens, BGC-823, read-out: IC50): 2.55 µg/mL (≈ 19.6 µM)
SMILES: O=c1[nH]cc(F)c(=O)[nH]1 [5-fluorouracil]
inhibition at 0.3125 µg/mL ([1]; Homo sapiens, HCT-116, 0.3125 μg/mL, read-out: Percent growth inhibition): 70.1% | inhibition at 0.625 µg/mL ([1]; Homo sapiens, HCT-116, 0.625 μg/mL, read-out: Percent growth inhibition): 32.4% | inhibition at 1.25 µg/mL ([1]; Homo sapiens, HCT-116, 1.25 μg/mL, read-out: Percent growth inhibition): 36.4% | inhibition at 2.5 µg/mL ([1]; Homo sapiens, HCT-116, 2.5 μg/mL, read-out: Percent growth inhibition): 88.5% | inhibition at 5 µg/mL ([1]; Homo sapiens, HCT-116, 5 μg/mL, read-out: Percent growth inhibition): 89.9% | inhibition at 10 µg/mL ([1]; Homo sapiens, HCT-116, 10 μg/mL, read-out: Percent growth inhibition): 91.9% | inhibition at 20 µg/mL ([1]; Homo sapiens, HCT-116, 20 μg/mL, read-out: Percent growth inhibition): 95.8% | inhibition at 40 µg/mL ([1]; Homo sapiens, HCT-116, 40 μg/mL, read-out: Percent growth inhibition): 97.9% | inhibition at 80 µg/mL ([1]; Homo sapiens, HCT-116, 80 μg/mL, read-out: Percent growth inhibition): 99.5% | inhibition at 0.3125 µg/mL ([2]; Homo sapiens, A-431, 0.3125 μg/mL, read-out: Percent growth inhibition): 82.4% | inhibition at 0.625 µg/mL ([2]; Homo sapiens, A-431, 0.625 μg/mL, read-out: Percent growth inhibition): 83.5% | inhibition at 1.25 µg/mL ([2]; Homo sapiens, A-431, 1.25 μg/mL, read-out: Percent growth inhibition): 83.1% | inhibition at 2.5 µg/mL ([2]; Homo sapiens, A-431, 2.5 μg/mL, read-out: Percent growth inhibition): 83% | inhibition at 5 µg/mL ([2]; Homo sapiens, A-431, 5 μg/mL, read-out: Percent growth inhibition): 84.4% | inhibition at 10 µg/mL ([2]; Homo sapiens, A-431, 10 μg/mL, read-out: Percent growth inhibition): 33.7% | inhibition at 20 µg/mL ([2]; Homo sapiens, A-431, 20 μg/mL, read-out: Percent growth inhibition): 96.3% | inhibition at 40 µg/mL ([2]; Homo sapiens, A-431, 40 μg/mL, read-out: Percent growth inhibition): 98.2% | inhibition at 80 µg/mL ([2]; Homo sapiens, A-431, 80 μg/mL, read-out: Percent growth inhibition): 98.8% | inhibition at 0.3125 µg/mL ([3]; Homo sapiens, SMMC-7721, 0.3125 μg/mL, read-out: Percent growth inhibition): 28.6% | inhibition at 0.625 µg/mL ([3]; Homo sapiens, SMMC-7721, 0.625 μg/mL, read-out: Percent growth inhibition): 62.4% | inhibition at 1.25 µg/mL ([3]; Homo sapiens, SMMC-7721, 1.25 μg/mL, read-out: Percent growth inhibition): 81% | inhibition at 2.5 µg/mL ([3]; Homo sapiens, SMMC-7721, 2.5 μg/mL, read-out: Percent growth inhibition): 82.7% | inhibition at 5 µg/mL ([3]; Homo sapiens, SMMC-7721, 5 μg/mL, read-out: Percent growth inhibition): 84.3% | inhibition at 10 µg/mL ([3]; Homo sapiens, SMMC-7721, 10 μg/mL, read-out: Percent growth inhibition): 81.6% | inhibition at 20 µg/mL ([3]; Homo sapiens, SMMC-7721, 20 μg/mL, read-out: Percent growth inhibition): 79.1% | inhibition at 40 µg/mL ([3]; Homo sapiens, SMMC-7721, 40 μg/mL, read-out: Percent growth inhibition): 80.2% | inhibition at 80 µg/mL ([3]; Homo sapiens, SMMC-7721, 80 μg/mL, read-out: Percent growth inhibition): 91% | inhibition at 0.3125 µg/mL ([4]; Homo sapiens, BGC-823, 0.3125 μg/mL, read-out: Percent growth inhibition): -5.82% | inhibition at 0.625 µg/mL ([4]; Homo sapiens, BGC-823, 0.625 μg/mL, read-out: Percent growth inhibition): -4.99% | inhibition at 1.25 µg/mL ([4]; Homo sapiens, BGC-823, 1.25 μg/mL, read-out: Percent growth inhibition): -1.41% | inhibition at 2.5 µg/mL ([4]; Homo sapiens, BGC-823, 2.5 μg/mL, read-out: Percent growth inhibition): 0.92% | inhibition at 5 µg/mL ([4]; Homo sapiens, BGC-823, 5 μg/mL, read-out: Percent growth inhibition): 11.6% | inhibition at 10 µg/mL ([4]; Homo sapiens, BGC-823, 10 μg/mL, read-out: Percent growth inhibition): 23.9% | inhibition at 20 µg/mL ([4]; Homo sapiens, BGC-823, 20 μg/mL, read-out: Percent growth inhibition): 40.9% | inhibition at 40 µg/mL ([4]; Homo sapiens, BGC-823, 40 μg/mL, read-out: Percent growth inhibition): 52.7% | inhibition at 80 µg/mL ([4]; Homo sapiens, BGC-823, 80 μg/mL, read-out: Percent growth inhibition): 62.8%
